Experiments:
human orexin-1 receptor = human orexin-1 receptor (Homo sapiens (Human), UniProt O43613); assay: In vitro assay: intracellular calcium measurements (FLIPR), antagonistic activity; type: cell-based; settings: CHO cells, 3 nM orexin-A, compound incubation 120 min; marked values are geometric means of n = 2-6; read-out: IC50 OX1
human orexin-2 receptor = human orexin-2 receptor (Homo sapiens (Human), UniProt O43614); assay: as above; type: cell-based; settings: CHO cells, 3 nM orexin-A, compound incubation 120 min; marked values are geometric means of n = 2-6; read-out: IC50 OX2
human orexin-2 receptor, sequence (O43614 whole entry): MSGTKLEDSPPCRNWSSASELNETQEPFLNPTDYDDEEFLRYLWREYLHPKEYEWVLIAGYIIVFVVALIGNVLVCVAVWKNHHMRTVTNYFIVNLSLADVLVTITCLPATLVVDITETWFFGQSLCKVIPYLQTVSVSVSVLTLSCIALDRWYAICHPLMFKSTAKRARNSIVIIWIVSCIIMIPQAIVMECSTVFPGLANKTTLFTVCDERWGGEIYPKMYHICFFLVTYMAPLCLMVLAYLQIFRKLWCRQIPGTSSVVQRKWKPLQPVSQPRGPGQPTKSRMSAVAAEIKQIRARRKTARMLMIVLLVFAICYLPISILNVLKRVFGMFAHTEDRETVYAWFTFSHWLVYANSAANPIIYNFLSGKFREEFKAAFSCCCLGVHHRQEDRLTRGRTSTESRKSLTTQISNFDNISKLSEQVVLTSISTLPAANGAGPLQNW

human orexin-1 receptor, sequence (O43613 whole entry): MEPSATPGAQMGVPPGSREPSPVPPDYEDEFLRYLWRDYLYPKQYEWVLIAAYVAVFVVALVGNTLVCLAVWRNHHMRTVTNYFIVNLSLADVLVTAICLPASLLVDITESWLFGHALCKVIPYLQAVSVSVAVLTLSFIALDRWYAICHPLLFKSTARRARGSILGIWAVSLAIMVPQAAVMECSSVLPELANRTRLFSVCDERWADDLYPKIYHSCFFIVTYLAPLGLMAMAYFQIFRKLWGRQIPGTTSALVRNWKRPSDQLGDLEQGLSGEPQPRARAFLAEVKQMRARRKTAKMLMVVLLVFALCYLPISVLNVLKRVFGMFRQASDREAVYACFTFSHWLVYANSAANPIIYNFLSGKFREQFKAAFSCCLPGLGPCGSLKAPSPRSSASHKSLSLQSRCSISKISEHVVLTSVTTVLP

SMILES | IC50 (human orexin-1 receptor) | IC50 (human orexin-2 receptor)
COc1cccc(OC)c1C1CCCC(=O)N1Cc1cccc(-n2ccnn2)c1 (centres unmarked) [Example 46, 1-(3-(1H-1,2,3-triazol-1-yl)benzyl)-6-(2,6-dimethoxyphenyl)piperidin-2-one] | 440 nM | 239 nM
COc1cccc(OC)c1C1CCCC(=O)N1Cc1ccc2nc(C)sc2c1 (centres unmarked) [Example 47, 6-(2,6-dimethoxyphenyl)-1-((2-methylbenzo[d]thiazol-6-yl)methyl)piperidin-2-one] | 187 nM | 165 nM
COc1cccc(OC)c1C1CCCC(=O)N1Cc1cc(-c2ccccn2)ccc1Cl (centres unmarked) [Example 48, 1-(2-chloro-5-(pyridin-2-yl)benzyl)-6-(2,6-dimethoxyphenyl)piperidin-2-one] | 169 nM | 625 nM
COc1cccc(OC)c1C1CCCC(=O)N1Cc1cc(Cl)cc(-c2ccccn2)c1 (centres unmarked) [Example 49, 1-(3-chloro-5-(pyridin-2-yl)benzyl)-6-(2,6-dimethoxyphenyl)piperidin-2-one] | 28 nM | 11 nM
COc1cccc(OC)c1C1CCCC(=O)N1Cc1ccnc(-c2ccccn2)c1 (centres unmarked) [Example 50, 1-([2,2′-bipyridin]-4-ylmethyl)-6-(2,6-dimethoxyphenyl)piperidin-2-one] | 39 nM | 119 nM
COc1cccc(OC)c1C1CCCC(=O)N1Cc1ccnc(-n2cccn2)c1 (centres unmarked) [Example 52, 1-((2-(1H-pyrazol-1-yl)pyridin-4-yl)methyl)-6-(2,6-dimethoxyphenyl)piperidin-2-one] | 14 nM | 80 nM
COc1ccnc(OC)c1C1CCCC(=O)N1Cc1cccc(-c2nccs2)c1 (centres unmarked) [Example 53, 6-(2,4-dimethoxypyridin-3-yl)-1-(3-(thiazol-2-yl)benzyl)piperidin-2-one] | 33 nM | 22 nM
COc1ccnc(OC)c1C1CCCC(=O)N1Cc1cccc(-c2csc(C)n2)c1 (centres unmarked) [Example 54, 6-(2,4-dimethoxypyridin-3-yl)-1-(3-(2-methylthiazol-4-yl)benzyl)piperidin-2-one] | 15 nM | 13 nM
COc1ccnc(OC)c1C1CCCC(=O)N1Cc1cccc(-c2ccccn2)c1 (centres unmarked) [Example 55, 6-(2,4-dimethoxypyridin-3-yl)-1-(3-(pyridin-2-yl)benzyl)piperidin-2-one] | 96 nM | 95 nM
COc1ccnc(OC)c1C1CCCC(=O)N1Cc1csc(-c2ccccc2)n1 (centres unmarked) [Example 56, 6-(2,4-dimethoxypyridin-3-yl)-1-((2-phenylthiazol-4-yl)methyl)piperidin-2-one] | 141 nM | 6 nM
COc1ccnc(OC)c1C1CCCC(=O)N1Cc1ccc2oc3ccccc3c2c1 (centres unmarked) [Example 57, 1-(dibenzo[b,d]furan-2-ylmethyl)-6-(2,4-dimethoxypyridin-3-yl)piperidin-2-one] | 5 nM | 3 nM
COc1ccnc(OC)c1C1CCCC(=O)N1Cc1ccc2nc(C)sc2c1 (centres unmarked) [Example 58, 6-(2,4-dimethoxypyridin-3-yl)-1-((2-methylbenzo[d]thiazol-6-yl)methyl)piperidin-2-one] | 2560 nM | 1530 nM
COc1ccnc(OC)c1C1CCCC(=O)N1Cc1ccc(F)c(-c2ccccn2)c1 (centres unmarked) [Example 59, 6-(2,4-dimethoxypyridin-3-yl)-1-(4-fluoro-3-(pyridin-2-yl)benzyl)piperidin-2-one] | 207 nM | 135 nM
COc1ccnc(OC)c1C1CCCC(=O)N1Cc1cccc(-c2ccccc2)c1 (centres unmarked) [Example 60, 1-([1,1′-biphenyl]-3-ylmethyl)-6-(2,4-dimethoxypyridin-3-yl)piperidin-2-one] | 39 nM | 34 nM
COc1cncc(OC)c1C1CCCC(=O)N1Cc1cccc(-c2nccs2)c1 (centres unmarked) [Example 61, 6-(3,5-dimethoxypyridin-4-yl)-1-(3-(thiazol-2-yl)benzyl)piperidin-2-one] | 40 nM | 26 nM
COc1cncc(OC)c1C1CCCC(=O)N1Cc1cccc(-c2csc(C)n2)c1 (centres unmarked) [Example 62, 6-(3,5-dimethoxypyridin-4-yl)-1-(3-(2-methylthiazol-4-yl)benzyl)piperidin-2-one] | 25 nM | 33 nM
COc1cncc(OC)c1C1CCCC(=O)N1Cc1cccc(-c2ccccn2)c1 (centres unmarked) [Example 63, 6-(3,5-dimethoxypyridin-4-yl)-1-(3-(pyridin-2-yl)benzyl)piperidin-2-one] | 135 nM | 90 nM
COc1cncc(OC)c1C1CCCC(=O)N1Cc1csc(-c2ccccc2)n1 (centres unmarked) [Example 64, 6-(3,5-dimethoxypyridin-4-yl)-1-((2-phenylthiazol-4-yl)methyl)piperidin-2-one] | 618 nM | 246 nM
COc1cncc(OC)c1C1CCCC(=O)N1Cc1ccc2oc3ccccc3c2c1 (centres unmarked) [Example 65, 1-(dibenzo[b,d]furan-2-ylmethyl)-6-(3,5-dimethoxypyridin-4-yl)piperidin-2-one] | 6 nM | 1 nM
COc1cncc(OC)c1C1CCCC(=O)N1Cc1cccc(-n2cccn2)n1 (centres unmarked) [Example 66, 1-((6-(1H-pyrazol-1-yl)pyridin-2-yl)methyl)-6-(3,5-dimethoxypyridin-4-yl)piperidin-2-one] | 3100 nM | 3700 nM

SMILES | IC50 (human orexin-1 receptor) | IC50 (human orexin-2 receptor)
COc1cncc(OC)c1C1CCCC(=O)N1Cc1cccc(-n2nccn2)c1 (centres unmarked) [Example 67, 1-(3-(2H-1,2,3-triazol-2-yl)benzyl)-6-(3,5-dimethoxypyridin-4-yl)piperidin-2-one] | 163 nM | 156 nM
COc1cncc(OC)c1C1CCCC(=O)N1Cc1cccc(-c2ccccc2)c1 (centres unmarked) [Example 68, 1-([1,1′-biphenyl]-3-ylmethyl)-6-(3,5-dimethoxypyridin-4-yl)piperidin-2-one] | 45 nM | 31 nM
COc1cccc(OC)c1C1CCCC(=O)N1Cc1cnc(OC(F)F)c(C)c1 (centres unmarked) [Example 69, 1-((6-(difluoromethoxy)-5-methylpyridin-3-yl)methyl)-6-(2,6-dimethoxyphenyl)piperidin-2-one] | 247 nM | 77 nM
COc1cccc(OC)c1C1CCCC(=O)N1Cc1csc(C)n1 (centres unmarked) [Example 71, 6-(2,6-dimethoxyphenyl)-1-((2-methylthiazol-4-yl)methyl)piperidin-2-one] | > 12600 nM | 6190 nM
COc1cccc(OC)c1C1CCCCC(=O)N1Cc1cccc(-c2ccccc2)c1 (centres unmarked) [Example 72, 1-([1,1′-biphenyl]-3-ylmethyl)-7-(2,6-dimethoxyphenyl)azepan-2-one] | 3 nM | 12 nM
COc1cccc(OC)c1C1CCCCC(=O)N1Cc1ccc(Oc2ccccc2)cc1 (centres unmarked) [Example 73, 7-(2,6-dimethoxyphenyl)-1-(4-phenoxybenzyl)azepan-2-one] | 186 nM | 187 nM
COc1cccc(OC)c1C1CCCCC(=O)N1Cc1cccc(Oc2ccccc2)c1 (centres unmarked) [Example 74, 7-(2,6-dimethoxyphenyl)-1-(3-phenoxybenzyl)azepan-2-one] | 137 nM | 98 nM
COc1cccc(OC)c1C1CCCCC(=O)N1Cc1ccc2ccccc2c1 (centres unmarked) [Example 75, 7-(2,6-dimethoxyphenyl)-1-(naphthalen-2-ylmethyl)azepan-2-one] | 12 nM | 32 nM
COc1cccc(OC)c1C1CCCCC(=O)N1Cc1ccc(-c2ccccc2)cc1 (centres unmarked) [Example 77, 1-([1,1′-biphenyl]-4-ylmethyl)-7-(2,6-dimethoxyphenyl)azepan-2-one] | 305 nM | 188 nM
COc1cccc(OC)c1C1CCCCC(=O)N1Cc1ccccc1-c1ccccc1 (centres unmarked) [Example 78, 1-([1,1′-biphenyl]-2-ylmethyl)-7-(2,6-dimethoxyphenyl)azepan-2-one] | 323 nM | 806 nM
COc1cccc(OC)c1C1CCCCC(=O)N1Cc1ccc2ccccc2n1 (centres unmarked) [Example 79, 7-(2,6-dimethoxyphenyl)-1-(quinolin-2-ylmethyl)azepan-2-one] | 21 nM | 82 nM
COc1cccc(OC)c1C1CCCCC(=O)N1Cc1cnc2ccccc2c1 (centres unmarked) [Example 80, 7-(2,6-dimethoxyphenyl)-1-(quinolin-3-ylmethyl)azepan-2-one] | 715 nM | 1040 nM
COc1cccc(OC)c1C1CCCCC(=O)N1Cc1ccnc(-c2ccccc2)c1 (centres unmarked) [Example 81, 7-(2,6-dimethoxyphenyl)-1-((2-phenylpyridin-4-yl)methyl)azepan-2-one] | 7 nM | 58 nM
COc1cccc(OC)c1C1CCCCC(=O)N1Cc1cccc(-c2ccccc2)n1 (centres unmarked) [Example 82, 7-(2,6-dimethoxyphenyl)-1-((6-phenylpyridin-2-yl)methyl)azepan-2-one] | 7 nM | 26 nM
COc1cccc(OC)c1C1CCCCC(=O)N1Cc1cccc(-c2ncccn2)c1 (centres unmarked) [Example 83, 7-(2,6-dimethoxyphenyl)-1-(3-(pyrimidin-2-yl)benzyl)azepan-2-one] | 3 nM | 19 nM
COc1cccc(OC)c1C1CCCCC(=O)N1Cc1cccc(-c2ccccn2)c1 (centres unmarked) [Example 84, 7-(2,6-dimethoxyphenyl)-1-(3-(pyridin-2-yl)benzyl)azepan-2-one] | 3 nM | 7 nM
COc1cccc(OC)c1C1CCCCC(=O)N1Cc1cccc(-c2nccs2)c1 (centres unmarked) [Example 85, 7-(2,6-dimethoxyphenyl)-1-(3-(thiazol-2-yl)benzyl)azepan-2-one] | 2 nM | 3 nM
COc1cccc(OC)c1C1CCCCC(=O)N1Cc1ccc2c(c1)c1ccccc1n2C (centres unmarked) [Example 86, 7-(2,6-dimethoxyphenyl)-1-((9-methyl-9H-carbazol-3-yl)methyl)azepan-2-one] | 45 nM | 71 nM
COc1cccc(OC)c1C1CCCCC(=O)N1Cc1cccc(-c2cccnc2)c1 (centres unmarked) [Example 87, 7-(2,6-dimethoxyphenyl)-1-(3-(pyridin-3-yl)benzyl)azepan-2-one] | 21 nM | 46 nM
COc1cccc(OC)c1C1CCCCC(=O)N1Cc1cccc(N2CCCCC2)c1 (centres unmarked) [Example 88, 7-(2,6-dimethoxyphenyl)-1-(3-(piperidin-1-yl)benzyl)azepan-2-one] | 12 nM | 58 nM
